Results taken from patent US5296597A, “Amide derivatives of Partricin A & Partricin B” (SPA Societa' Prodotti Antibiotici S.P.A., priority 1989, dated 1994).
Converted amounts (≈) assume the structure as drawn. Read-outs that look alike come from different tables or passages of the source.

Experiments:
rat erythrocytes = assay: hemolytic power on rat erythrocytes; assay type: cell-based; conditions: for hemolytic activity, times less than unreacted partricins: relative to unreacted partricins; for EC (concentration that causes hemoglobin liberation of 50% of the total amount): rat erythrocytes, 2% suspension in BSA Ringer, 1 hour at 36, average of 2-5 experiments
Experimental: A further important evaluation parameter was the helomytic power: rat erytrocytes were suspended at a 2% concentration in Ringer solution containing 0.2% of bovine serum albumin, fraction V (BSA) and incubated for 1 hour at 36° C. in the presence of various amounts of the amides being investigated.

Trichomonas vaginalis = assay: antiprotozoal activity, MIC on Trichomonas vaginalis; assay type: cell-based; conditions: T. vaginalis n. 6; CPLM culture medium, 72 hours; average of 2-5 experiments
Saccharomyces cerevisiae = assay: growth inhibition of Saccharomyces cerevisiae culture (turbidimetric); assay type: cell-based; conditions: S. cerevisiae n. 167; PYG culture medium, 6 hours at 36; average of 2-5 experiments
Candida albicans = assay: antimycotic activity, minimum inhibitory concentration (MIC) on Candida albicans, liquid and solid medium; assay type: cell-based; conditions: candida albicans n. 37, 24 hours, average of 2-5 experiments
Experimental: (b) Sabouraud fluid medium, 24 hours at
(c) Sabouraud fluid medium + agar, 24 hours at […]

[1] = background statement, in words; cited from earlier work
[2] = background statement, in words; cited from earlier work; remark: listed apart in the source
[3] = system: yeasts, such as Candida albicans; conditions: background statement, in words; cited from earlier work
water solubility and pH = assay type: physicochemical
[4] = Sabouraud fluid medium + agar (solid)

Compound	MIC (Trichomonas vaginalis) [ng/mL]	IC50 (Saccharomyces cerevisiae) [ng/mL]	MIC (Candida albicans; [4]) [ng/mL]	MIC (Candida albicans; Sabouraud fluid medium) [ng/mL]	EC (concentration that causes hemoglobin liberation of 50% of the total amount) (rat erythrocytes) [µg/mL]	further results
2-dimethylaminoethyl amide	–	–	–	–	–	hemolytic activity, times less than unreacted partricins (rat erythrocytes): 25-80 times less
3-dimethylaminopropyl amide	–	–	–	–	–	hemolytic activity, times less than unreacted partricins (rat erythrocytes): 25-80 times less
CC1/C=C/C=C/C=C/C=C/C=C/C=C/C=C/C(O[C@H]2O[C@@H](C)[C@H](O)[C@@H](N)[C@H]2O)CC2OC(O)(CC(O)CC(O)CC(O)CC(O)CC(=O)CC(O)CC(=O)OC1C(C)CCC(O)CC(=O)c1ccc(N)cc1)CC(O)C2C(=O)O (stereo partly drawn) [Partricin B (P.B), reference compound]	250 (≈ 0.225 µM)	5 (≈ 0.00449 µM)	40	40 (≈ 0.0359 µM)	–	–
COC(=O)C1C(O)CC2(O)CC(O)CC(O)C(O)CCC(O)CC(O)CC(=O)OC(C)C(C)C(O)C(C)C=CC=CC=CC=CC=CC=CC=CC(OC3OC(C)C(O)C(N)C3O)CC1O2 (stereo not drawn) [amphotericin B methyl ester]	–	–	–	–	–	toxicity [1]: severe neurotoxic effects
Partricin 3-dimethylaminopropyl amide [P. 3-dimethyl-aminopropyl amide]	500	1	16	10	17	–
Partricin A 3-dimethylaminopropyl amide [P.A 3-dimethyl-aminopropyl amide]	500	0.5	8	3	20	–
Partricin A N'-methyl-piperazide [P.A N'-methyl-piperazide]	500	0.4	4	1	–	–
Partricin A allyl amide [P.A allyl amide]	250	0.8	10	6	–	–
Partricin A ethyl amide [P.A ethyl amide]	500	1	10	9	–	–
Partricin A n-pentyl amide [P.A n-penthyl amide]	2000	3	80	20	–	–
Partricin A n-propyl amide [P.A n-propyl amide]	500	1	16	8	–	–
Partricin B 2-dimethylaminoethyl amide [P.B 2-dimethyl-aminoethyl-amide]	500	1	10	3	–	–
Partricin B methyl amide [P.B methyl amide]	250	1	8	7	–	–
Partricin methyl amide [P. methy amide]	250	1	7	5	7.5	–
Partricin n-dodecyl amide [P. n-dodecyl amide]	> 10000	50	800	450	> 32	–
mepartricin	–	–	–	–	–	water solubility [2]: insufficient water solubility; action selectivity [1]: greater action selectivity; toxicity [1]: reduced toxicity, but still exhibits marked toxic effects; antimycotic activity [3]: increased antimycotic activity
methyl amide	–	–	–	–	–	hemolytic activity, times less than unreacted partricins (rat erythrocytes): 25-80 times less
partricin A 2-dimethylaminoethyl amide diaspartate	–	–	–	–	–	water solubility (water solubility and pH; in words): water-soluble; pH (reaction of the salt) (water solubility and pH; slightly acidic reaction): ~5
partricin A 2-dimethylaminoethylamide [P.A 2-dimethyl-aminoethyl amide]	500	0.4	8	2	25	–
partricin A methyl amide [P.A methyl amide]	250	0.7	8	5	8	–
